{"source": "paper PMC3909471", "about": "(European journal of medicinal chemistry, 2013)", "key": {"human CB2 receptors [1]": {"target": "T1, human CB2 receptors (Homo sapiens, UniProt P34972)", "T1 sequence (P34972 whole entry)": "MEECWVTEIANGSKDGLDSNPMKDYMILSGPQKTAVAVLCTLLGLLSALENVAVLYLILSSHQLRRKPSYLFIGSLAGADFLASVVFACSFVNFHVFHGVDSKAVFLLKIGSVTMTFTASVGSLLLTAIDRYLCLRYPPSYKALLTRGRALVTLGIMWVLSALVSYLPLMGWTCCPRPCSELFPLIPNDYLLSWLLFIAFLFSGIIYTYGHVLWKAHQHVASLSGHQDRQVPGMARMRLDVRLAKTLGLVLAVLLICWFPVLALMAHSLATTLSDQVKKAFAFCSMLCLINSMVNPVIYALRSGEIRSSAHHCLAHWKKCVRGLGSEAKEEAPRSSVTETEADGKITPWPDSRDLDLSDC", "assay": "Effect on CP55,940-induced CB2 internalization in hCB2 cells", "format": "cell-based", "settings": "10 nM CP55,940 cotreated with 3 uM compound"}, "[2]": {"target": "human CB2 cannabinoid receptor (Homo sapiens, UniProt P34972)", "sequence (P34972 whole entry)": "as above", "assay": "[3H]CP55,940 radioligand competition binding, human CB2"}, "human CB2 receptors [3]": {"target": "T1, human CB2 receptors", "assay": "hCB2 receptor internalization", "format": "cell-based", "settings": "at 10 μM as printed in text"}, "[4]": {"system": "L5 and L6 spinal nerve ligation neuropathic pain model in rats", "assay": "Spinal nerve ligation neuropathic pain model, von Frey paw withdrawal threshold", "format": "in vivo, rat", "settings": "intraperitoneally 5 – 20 mg/kg"}, "[5]": {"target": "rat CB1 cannabinoid receptor (Rattus norvegicus, UniProt P20272)", "sequence (P20272 whole entry)": "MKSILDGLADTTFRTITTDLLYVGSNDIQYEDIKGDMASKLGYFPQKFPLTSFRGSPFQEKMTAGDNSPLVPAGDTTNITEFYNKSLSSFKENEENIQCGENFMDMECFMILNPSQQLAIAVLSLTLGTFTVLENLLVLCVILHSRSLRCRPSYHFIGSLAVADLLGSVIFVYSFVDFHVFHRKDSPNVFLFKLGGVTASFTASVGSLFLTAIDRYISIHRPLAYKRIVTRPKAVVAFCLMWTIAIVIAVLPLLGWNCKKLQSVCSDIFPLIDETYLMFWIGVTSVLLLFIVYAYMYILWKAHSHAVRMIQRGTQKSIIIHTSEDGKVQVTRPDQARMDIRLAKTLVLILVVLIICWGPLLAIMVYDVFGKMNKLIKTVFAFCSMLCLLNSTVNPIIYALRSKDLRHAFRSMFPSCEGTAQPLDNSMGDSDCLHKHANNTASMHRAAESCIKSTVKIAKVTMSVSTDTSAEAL", "assay": "[3H]CP55,940 radioligand competition binding, rat CB1", "settings": "removal of the methyl moiety from the N-methylpiperazine analogue"}}, "data": [{"smiles": "CCCCCn1c2ccccc2c2cc(C(=O)NCC(C)(C)C)ncc21", "note": "[Compound 35, N-(2,2-dimethylpropyl)-9-pentyl-9H-pyrido[3,4-b]indole-3-carboxamide]", "values": [{"measurement": "Reduction of hCB2 internalization induced by CP55,940", "setting": "human CB2 receptors [1]", "result": "more than 50%"}]}, {"smiles": "O=C(c1ccc2c(c1)c1ccccc1n2Cc1ccncc1)N1CCCCC1", "note": "[Compound 74, Piperidin-1-yl(9-(pyridin-4-ylmethyl)-9H-carbazol-3-yl)methanone]", "values": [{"measurement": "Improvement in CB2 selectivity", "setting": "[2]; 4-methylpyridine replacing the 4-methyltetrahydropyran fragment (vs 69)", "result": 4, "unit": "fold"}]}, {"smiles": "CCCCCn1c2ccccc2c2cc(C(=O)c3ccccc3)ccc21", "note": "[Compound 18, (9-Pentyl-9H-carbazol-3-yl)(phenyl)methanone]", "values": [{"measurement": "Reduction of hCB2 internalization induced by CP55,940", "setting": "human CB2 receptors [1]", "result": "more than 50%"}]}, {"smiles": "CCCCCn1c2ccc(C(=O)N3CCCCC3)cc2c2ccc(OC)cc21", "note": "[Compound 81, (7-Methoxy-9-pentyl-9H-carbazol-3-yl)(piperidin-1-yl)methanone]", "values": [{"measurement": "CB2 internalization", "setting": "human CB2 receptors [3]", "result": "failed to internalize CB2"}, {"measurement": "Reduction of hCB2 internalization induced by CP55,940", "setting": "human CB2 receptors [1]", "result": "reduced compound CP55,940-induced internalization"}]}, {"smiles": "CS(=O)(=O)NCCCn1c2ccccc2c2cc(C(=O)N3CCCCC3)ccc21", "note": "[Compound 64, N-(3-(3-(Piperidine-1-carbonyl)-9H-carbazol-9-yl)propyl)methanesulfonamide]", "values": [{"measurement": "Tactile allodynia (paw withdrawal threshold, von Frey filaments)", "setting": "[4]", "result": "significantly attenuated tactile allodynia in a dose-dependent manner"}]}, {"smiles": "CCCCCn1c2ccccc2c2cc(C(=O)N3CCN(C)CC3)ccc21", "note": "[Compound 9, (4-Methylpiperazin-1-yl)(9-pentyl-9H-carbazol-3-yl)methanone]", "values": [{"measurement": "Improvement of CB2 selectivity", "setting": "[2]; compared to the piperidine analogue 4", "result": 3, "unit": "fold"}]}, {"smiles": "CCCCCn1c2ccccc2c2cc(C(=O)N3CCNCC3)ccc21", "note": "[Compound 15, (9-Pentyl-9H-carbazol-3-yl)(piperazin-1-yl)methanone]", "values": [{"measurement": "Decrease of CB1 affinity", "setting": "[5]", "result": 4, "unit": "fold"}]}]}
